Assays:
normal brain cells = assay: Dose-response curves of control normal brain cells; type: cell-based, human; conditions: 72-h treatment, same concentrations (below 10 μM)
Text: PrestoBlue readout is normalized to vehicle-treated cells. Data are presented as mean ± SD from 4 technical replicates. (C) Assessment of cell viability of patient-derived BMICs treated with MPA or its vehicle. PrestoBlue readout is normalized to vehicle-treated cells, p < 0.0001. […] Sphere count normalized to vehicle-treated cells, p < 0.0001. (F and G) Percent wound closure of DMSO control vs. MPA-treated cells expressed as an average of replicates (n = 3) and images are taken at 10× magnification. Wound closure (represented by dotted white line) is measured using ImageJ on Incucyte-derived images, p values are indicated. Scale bars are 400 μm. See also Videos S1, S2, S3, and S4. Comparisons of cell viability, sphere formation, and wound closure were made via a two-tailed unpaired t test and data are presented as mean ± SD from 3 to 4 technical replicates. […]
Dose-response assays were conducted using the same protocol apart from drugs being plated using 2-fold serial dilutions (20 μM - 39 nM) as previously described.[66] The half maximal inhibitory concentration (IC50) is determined by plotting percent cell viability by the logarithmic concentration of drug. IC80 concentrations will be used for subsequent functional assays (cell proliferation, sphere formation), as determined by the following formula: ICF=100−F/F^1/H×IC50 where F = fraction of maximal response and H = hill slope.

patient-derived BMICs [1] = assay: Cell proliferation assay over time, PrestoBlue; type: cell-based, human; conditions: IC80, PrestoBlue normalized to vehicle
Experimental: Cell proliferation assays were conducted using the same protocol, except for drugs being plated at their IC80 for a four-day incubation period. All results were illustrated and analyzed for significance using GraphPad Prism 8 software.

patient-derived BMICs [2] = assay: Clonogenic sphere formation assay; type: cell-based, human; conditions: limiting dilution and clonogenic sphere formation assays, IC80
Experimental: To assess tumor sphere forming capacity under clonogenic conditions, neurospheres were dissociated into single cells and plated at a low density of 200 cells/well in low-binding tissue culture-treated 96-well plates in serum-free media as previously described.[14]^,[66]^,[67]^,[68]^,[69] Cells were incubated with drug (IC80) or DMSO control, in triplicate, and incubated at 37°C with a humidified atmosphere of 5% CO2. The number of spheres per well were manually counted seven days later. The results were illustrated and analyzed for significance using GraphPad Prism 8 software.

[3] = tested on: primary CRUK0748 lung tumor cells; assay: Pre-treatment model, intrathoracic engraftment of primary lung tumor cells; type: in vivo, mice; conditions: cells pre-treated in vitro
Experimental: Mice injected with MPA-treated cells also experienced a significant increase in median survival time of 6 days compared to the mice injected with vehicle-treated cells (Figure 3H).
BMICs were dissociated into single cell suspensions and resuspended in phosphate buffered saline (PBS, Wisent Bio) with 2 mM EDTA. Cells were stained with APC-conjugated anti-human TRA-1-85 (CD147; Cat # 130-128-900, Miltenyi Biotec) and incubated for 15 min at room temperature. The viability dye 7-Aminoactinomycin D (7-AAD; Cat # 00-6993-50, eBioscience) was used to exclude dead cells; incubation with 7-AAD allows for penetration of compromised membranes and binding to DNA.[74] Live cells were analyzed using Summit 5.4 software on MoFlo XDP cell sorter (Beckman Coulter) to confirm human BMIC metastasis to the brain.

[4] = tested on: patient-derived lung-BMICs; assay: Intracardiac injection of lung-BMICs, daily oral gavage treatment; type: in vivo, mice; conditions: 100 mg/kg daily oral gavage, vs placebo
Text: We next wondered whether a drug used to slow down, or block, BM needed to be BBB penetrant and aimed to uncover whether MPA could target pre-metastatic BMICs in the circulation in a more clinically relevant in vivo treatment model.
(§1) All experimental procedures involving animal work has been reviewed and approved by McMaster University Animal Research Ethics Board. Non-obese diabetic-severe combined immunodeficient IL2r γ ^null (NSG) mice are used for all experiments. Equal numbers of male and female mice were used for all experiments. Healthy mice were 6–8 weeks at time of use. Mice are anesthetized by gas anesthesia using isoflurane (4% induction, 2.5% maintenance) before procedure. Cells were engineered to express firefly luciferase and were injected intracardially, orthotopically, or intracranially as previously described.[13]^,[14]^,[63]^,[64]^,[65] […] Mice are monitored weekly for signs of illness until endpoint.
Fig S3. MPA m ust cross the blood brain barrier to eff ectively slow the progression of BM over tim e, related to Figures 3 and 4. a, Mice were either orthotopically (intratho racically) or intracardiac injected with lung BMICs, […]
to placebo, but (f) had the same number of human cells detected in their brains following humane endpoint by flow cytometry. n.s. = not significant. […]

lung-BMICs = assay: Intracranial injection of lung-BMICs, daily oral gavage treatment; type: in vivo, mice; conditions: 100 mg/kg daily oral gavage from 24 h after injection; log rank n.s. [MPA], p = 0.0005 [Compound 3]
Experimental: The cells were injected intracranially to ensure that any survival benefit would be due to the compounds crossing the BBB and targeting BMICs in the brain.
as §1

IMPDH KO BT478 cells = assay: Dose-response assays using AAVS1 and IMPDH KO cells; type: cell-based, human; conditions: IMPDH1 and IMPDH2 knocked out
Text: In parallel, we knocked out the safe-harbor locus, AAVS1, as a control cell line. Knockouts were validated by western blot (Figures 5E and S4D). Loss of IMPDH led to tumor cell death within 1 week of knockout (Figure 5F).
Guide RNAs (gRNAs) targeting AAVS1 (5′-[…]-3′) and IMPDH1 (5′- […]-3′) and IMPDH2 (5′-a[…]-3′) were obtained from TKOv3[76] and cloned into a single-gRNA lentiCRISPRv2 construct (Addgene 52961). Sequences were verified using Sanger sequencing. Each plasmid was packaged independently into lentivirus using second-generation packaging constructs as described previously.[77] BMICs were infected with lentivirus containing single-gRNA lentiCRISPRv2 constructs targeting AAVS1 or IMPDH1 or IMPDH2 (three gRNAs). Twenty-four hours post-infection, virus-containing media was replaced with fresh media containing puromycin (1–2 μg/mL) (ThermoFisher, Cat#A1113803) for 48–72 h. The knockout efficiency was validated by Western Blotting for evaluation of IMPDH protein expression.

[5] = carboxylic acid functionality; no measurement described; cited from earlier work

| SMILES | toxicity to normal brain cells (normal brain cells) | BMIC proliferation over time (patient-derived BMICs [1]) | frequency of stemness in BMIC lines (patient-derived BMICs [2]) | TRA-1-85-positive human cells detected in brains ([3]; humane endpoint, flow cytometry, vs vehicle) | increase in median survival time ([3]; intrathoracic injection, vs vehicle-treated cells) [days] | brain tumor burden ([4]; 7 days post-injection) | difference in brain tumor burden ([4]; 14 days post-injection) | survival advantage (lung-BMICs) | anti-BMIC activity following IMPDH knockout (IMPDH KO BT478 cells) | pKa [5] |
| --- | --- | --- | --- | --- | --- | --- | --- | --- | --- | --- |
| COc1c(C)c2c(c(O)c1C/C=C(\C)CCC(=O)O)C(=O)OC2 [MPA, Mycophenolic acid] | nontoxic | inhibits BMIC proliferation over time | significantly reduces the frequency of stemness | significantly fewer | 6 | significantly reduced brain tumor burden | no longer observed | no survival advantage | lose their anti-BMIC activity | ~5 |
| COc1c(C)c2c(c(O)c1C/C=C(\C)CCC(=O)OCCN1CCCC1)C(=O)OC2 [Compound 3] |  |  |  |  |  |  |  | significant survival advantage | lose their anti-BMIC activity |  |

Source: publication PMC11513854, “De novo GTP synthesis is a metabolic vulnerability for the interception of brain metastases” (Cell Reports Medicine, 2024)
